Earlier results, collected in US20020022024A1, “Hemoglobinase inhibitors and methods of use” (priority 2000, published 2002).

Legend:
[1] = target: T1, S. mansoni cathepsin B, Sm31 (Schistosoma mansoni, UniProt P25792); conditions: short synthetic substrate; Klinkert et al. 1994
T1 sequence (P25792 89-340): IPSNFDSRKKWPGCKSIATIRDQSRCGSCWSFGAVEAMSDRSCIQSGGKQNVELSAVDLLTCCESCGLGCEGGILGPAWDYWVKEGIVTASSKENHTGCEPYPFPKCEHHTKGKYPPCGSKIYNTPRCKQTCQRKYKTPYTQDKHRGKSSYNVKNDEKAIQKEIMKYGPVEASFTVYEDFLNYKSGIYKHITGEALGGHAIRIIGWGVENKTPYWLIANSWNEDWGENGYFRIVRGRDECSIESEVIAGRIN

schistosomules = conditions: added to culture media, in comparison to controls; Zerda et al. 1988

inhibitor potency on Sm31 relative to a derivative of E64 [1] | SMILES | death rate of schistosomules (schistosomules)
more potent inhibitor of Sm31 | CSCCC(NC(=O)C(Cc1c[nH]c2ccccc12)NC(=O)OCc1ccccc1)C(=O)C=[N+]=[N-] (stereo not drawn) [Z-Trp-Met-CHN2] | 
 | CC(C)C[C@H](NC(=O)[C@H]1O[C@@H]1C(=O)O)C(=O)NCCCCN [EP459] | increased the death rate of schistosomules
